15 molecules from patent US12122778B2, “Activating pyruvate kinase R” (Novo Nordisk Health Care AG, priority 2018, dated 2024) can be followed below.

One assay deals with PKR(G332S) (Homo sapiens, UniProt P30613, G332S). The assay is described as follows: Luminescence Biochemical Assay (Kinase Glo Plus), PKR G332S mutant. The note with it: with FBP; for activation at 1.54 µM: 1.54 μM compound, read-out: AC50 LUM KGP FBP % Fold@1.54 μM mean; for AC50: read-out: AC50 LUM KGP FBP AC50 μM gmean (column A); for Emax: read-out: AC50 LUM KGP FBP MAX % FOLD mean. Background: In Kinase-Glo more light means more ATP remaining.

Another assay concerns the target PKR(R510Q) (Homo sapiens, UniProt P30613, R510Q). Nature of the assay: Luminescence Biochemical Assay (Kinase Glo Plus), PKR R510Q mutant. The note with it: without FBP; for activation at 1.54 µM: 1.54 μM compound, read-out: AC50 LUM KGP woFBP % Fold@1.54 μM mean; for AC50: read-out: AC50 LUM KGP woFBP AC50 μM gmean; for Emax: read-out: AC50 LUM KGP woFBP MAX % FOLD mean.

The target of the next assay is PKR(wt) (Homo sapiens, UniProt P30613). Nature of the assay: Luminescence Biochemical Assay (Kinase Glo Plus), wild type PKR. Particulars: without FBP; for activation at 1.54 µM: 1.54 μM compound, read-out: AC50 LUM KGP woFBP % Fold@1.54 μM mean; for AC50: read-out: AC50 LUM KGP woFBP AC50 μM gmean; for Emax: read-out: AC50 LUM KGP woFBP MAX % FOLD mean.
Chain of PKR(wt) (P30613 whole entry): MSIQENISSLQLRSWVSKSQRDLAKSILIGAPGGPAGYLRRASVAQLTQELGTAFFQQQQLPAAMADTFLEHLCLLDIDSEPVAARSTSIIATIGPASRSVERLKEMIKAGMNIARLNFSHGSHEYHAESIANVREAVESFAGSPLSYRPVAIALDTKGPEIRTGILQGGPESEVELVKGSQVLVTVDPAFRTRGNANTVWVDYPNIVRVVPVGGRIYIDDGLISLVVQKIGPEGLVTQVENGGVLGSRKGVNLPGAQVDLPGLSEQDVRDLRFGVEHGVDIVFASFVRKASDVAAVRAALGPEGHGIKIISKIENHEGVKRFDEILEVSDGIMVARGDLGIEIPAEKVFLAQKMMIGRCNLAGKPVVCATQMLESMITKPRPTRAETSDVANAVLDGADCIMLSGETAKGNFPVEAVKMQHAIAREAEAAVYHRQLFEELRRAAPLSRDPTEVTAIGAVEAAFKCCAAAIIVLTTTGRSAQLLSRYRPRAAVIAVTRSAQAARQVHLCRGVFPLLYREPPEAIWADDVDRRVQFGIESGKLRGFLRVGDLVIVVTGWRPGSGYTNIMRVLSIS

Chain of PKR(G332S) (P30613 whole entry G332S): as the sequence (P30613 whole entry) above, with G332S counted along it
Chain of PKR(R510Q) (P30613 whole entry R510Q): as the sequence (P30613 whole entry) above, with R510Q counted along it

As a reminder, the AC50 is the concentration at which the activity in the assay is half-maximal. On to `O=C([C@H]1CCCO1)N1CC2=C(C1)CN(S(=O)(=O)c1cccnc1)C2` [Example 18-59, 3-({5-[(2R)-oxolane-2-carbonyl]-1H,2H,3H,4H,5H,6H-pyrrolo[3,4-c]pyrrol-2-yl}sulfonyl)pyridine], for which, on PKR(G332S), the activation at 1.54 µM fell in the range of 75 to 250%, the AC50 is 1 to 40 µM and the Emax fell in the range of 75 to 250%. At PKR(R510Q), the activation at 1.54 µM was 75 to 250%, the AC50 lay within 1 to 40 µM and the Emax was 75 to 250%. At PKR(wt), the activation at 1.54 µM was in the range of 75 to 250%, the AC50 lay in the range of 1 to 40 µM and the Emax was 75 to 250%.

For the molecule `O=C([C@@H](O)c1ccccn1)N1CC2=C(C1)CN(S(=O)(=O)c1ccc(OC(F)F)cc1)C2` (single isomer, unassigned) [Example 8-3], on PKR(G332S), the activation at 1.54 µM fell in the range of 75 to 250%, the AC50 is 0.1 to 1 µM and the Emax lay in the range of 75 to 250%. On PKR(R510Q), the activation at 1.54 µM was 250 to 50000%, the AC50 lay within 0.1 to 1 µM and the Emax was 250 to 500%. Also, on PKR(wt), the activation at 1.54 µM was in the range of 250 to 50000%, the AC50 was in the range of 0.1 to 1 µM and the Emax was in the range of 250 to 500%.

With `O=C(NCc1ccccc1F)N1CC2=C(C1)CN(S(=O)(=O)c1ccccn1)C2` [Example 21-42], on PKR(G332S), the activation at 1.54 µM was 75 to 250%, the AC50 was 0.1 to 1 µM and the Emax is 75 to 250%. Also, on PKR(R510Q), the activation at 1.54 µM is 250 to 50000%, the AC50 was 0.1 to 1 µM and the Emax lay within 250 to 500%. On PKR(wt), the activation at 1.54 µM lay in the range of 250 to 50000%, the AC50 lay in the range of 0.1 to 1 µM and the Emax lay within 250 to 500%.

For the molecule `O=C([C@H](O)c1ccccc1)N1CC2=C(C1)CN(S(=O)(=O)c1cccnc1C(F)(F)F)C2` [Example 4-2, (R)-2-hydroxy-2-phenyl-1-(5-(2-(trifluoromethyl)pyridin-3-ylsulfonyl)-4,5-dihydropyrrolo[3,4-c]pyrrol-2(1H,3H,4H)-yl)ethanone], on PKR(G332S), the activation at 1.54 µM lay within 75 to 250%, the AC50 is 1 to 40 µM and the Emax was in the range of 75 to 250%. In addition, on PKR(R510Q), the activation at 1.54 µM is 75 to 250%, the AC50 fell in the range of 1 to 40 µM and the Emax is 75 to 250%. Besides, on PKR(wt), the activation at 1.54 µM was 75 to 250%, the AC50 fell in the range of 1 to 40 µM and the Emax lay within 75 to 250%.

Consider `O=C(Cc1ccccn1)N1CC2=C(C1)CN(S(=O)(=O)c1ccc(OC(F)F)cc1)C2` [Example 8-1, 1-(5-[[4-(difluoromethoxy)benzene]sulfonyl]-1H,2H,3H,4H,5H,6H-pyrrolo[3,4-c]pyrrol-2-yl)-2-(pyridin-2-yl)ethan-1-one], for which the values for the activation at 1.54 µM on PKR(G332S), at PKR(R510Q) and on PKR(wt) were 75 to 250%, 250 to 50000% and 250 to 50000%, respectively. In addition, the AC50 is no more than 0.1 µM at PKR(G332S), 0.1 to 1 µM on PKR(R510Q) and 0.1 to 1 µM at PKR(wt). Moreover, the Emax on PKR(G332S) lay in the range of 75 to 250%; on PKR(R510Q) it was 250 to 500%; at PKR(wt), 250 to 500%.

Turning to `O=C(Cn1cnnn1)N1CC2=C(C1)CN(S(=O)(=O)c1ccc(OC(F)F)cc1)C2` [Example 18-19, 1-(5-((4-(difluoromethoxy)phenyl)sulfonyl)-3,4,5,6-tetrahydropyrrolo[3,4-c]pyrrol-2(1H)-yl)-2-(1H-tetrazol-1-yl)ethan-1-one], on PKR(G332S), the activation at 1.54 µM was in the range of 75 to 250%, the AC50 is no more than 0.1 µM and the Emax was 75 to 250%. Further, on PKR(R510Q), the activation at 1.54 µM lay within 250 to 50000%, the AC50 lay within 0.1 to 1 µM and the Emax was 250 to 500%. In addition, at PKR(wt), the activation at 1.54 µM was in the range of 250 to 50000%, the AC50 fell in the range of 0.1 to 1 µM and the Emax fell in the range of 250 to 500%.

For the molecule `Cc1cccc(S(=O)(=O)N2CC3=C(CN(C(=O)NCc4ccccc4F)C3)C2)n1` [Example 15-1, N-[(2-fluorophenyl)methyl]-5-(6-methylpyridine-2-sulfonyl)-1H,2H,3H,4H,5H,6H-pyrrolo[3,4-c]pyrrole-2-carboxamide], at PKR(G332S), the activation at 1.54 µM lay within 75 to 250%, the AC50 lay in the range of 0.1 to 1 µM and the Emax fell in the range of 75 to 250%. Also, at PKR(R510Q), the activation at 1.54 µM lay within 250 to 50000%, the AC50 was no more than 0.1 µM and the Emax lay in the range of 250 to 500%. On PKR(wt), the activation at 1.54 µM was 250 to 50000%, the AC50 is no more than 0.1 µM and the Emax was in the range of 250 to 500%.

On to `O=C([C@H](O)c1ccc(F)cc1)N1CC2=C(C1)CN(S(=O)(=O)c1ccc(C(F)(F)F)nc1)C2` [Example 18-64, (2R)-2-(4-fluorophenyl)-2-hydroxy-1-(5-{[6-(trifluoromethyl)pyridin-3-yl]sulfonyl}-1H,2H,3H,4H,5H,6H-pyrrolo[3,4-c]pyrrol-2-yl)ethan-1-one], for which, at PKR(G332S), the activation at 1.54 µM was 75 to 250%, the AC50 was 1 to 40 µM and the Emax was in the range of 75 to 250%. In addition, at PKR(R510Q), the activation at 1.54 µM lay within 75 to 250%, the AC50 was 1 to 40 µM and the Emax was 75 to 250%. Further, at PKR(wt), the activation at 1.54 µM lay in the range of 75 to 250%, the AC50 lay within 1 to 40 µM and the Emax was 75 to 250%.

As to `O=C([C@H](O)c1ccccc1)N1CC2=C(C1)CN(S(=O)(=O)c1cc(F)cc(F)c1)C2` [Example 18-52, (2R)-1-[5-(3,5-difluorobenzenesulfonyl)-1H,2H,3H,4H,5H,6H-pyrrolo[3,4-c]pyrrol-2-yl]-2-hydroxy-2-phenylethan-1-one], at PKR(G332S), the activation at 1.54 µM was in the range of 75 to 250%, the AC50 is 1 to 40 µM and the Emax was 75 to 250%. On PKR(R510Q), the activation at 1.54 µM lay in the range of 75 to 250%, the concentration at half-maximal activity (AC50) is 0.1 to 1 µM and the Emax lay within 75 to 250%. Also, on PKR(wt), the activation at 1.54 µM fell in the range of 75 to 250%, the AC50 lay in the range of 0.1 to 1 µM and the Emax fell in the range of 75 to 250%.

In the case of `O=C(NCc1ccccc1F)N1CC2=C(C1)CN(S(=O)(=O)c1ccc(OC(F)F)cc1)C2` [Example 21-15, 5-[4-(Difluoromethoxy)benzenesulfonyl]-N-[(2-fluorophenyl)methyl]-1H,2H,3H,4H,5H,6H-pyrrolo[3,4-c]pyrrole-2-carboxamide], the results for the activation at 1.54 µM at PKR(G332S), on PKR(R510Q) and at PKR(wt) were 75 to 250%, 250 to 50000% and 250 to 50000%, respectively. The AC50 on PKR(G332S), at PKR(R510Q) and on PKR(wt) was no more than 0.1 µM each time. The figures for the Emax at PKR(G332S), on PKR(R510Q) and at PKR(wt) were 75 to 250%, 250 to 500% and 250 to 500%, respectively.

`O=C([C@@H](O)c1ccc2c(c1)NCCO2)N1CC2=C(C1)CN(S(=O)(=O)c1ccc(OC(F)F)cc1)C2` (single isomer, unassigned) [Example 9-5]: the activation at 1.54 µM on PKR(G332S) was 75 to 250%; at PKR(R510Q), 250 to 50000%; at PKR(wt), 250 to 50000%. The AC50 at PKR(G332S), on PKR(R510Q) and on PKR(wt) was no more than 0.1 µM each time. The Emax lay in the range of 75 to 250% on PKR(G332S), 250 to 500% on PKR(R510Q) and 250 to 500% at PKR(wt).

For the molecule `COc1ccccc1CNC(=O)N1CC2=C(C1)CN(S(=O)(=O)c1ccc(OC(F)F)cc1)C2` [Example 21-12, 5-[4-(Difluoromethoxy)benzenesulfonyl]-N-[(2-methoxyphenyl)methyl]-1H,2H,3H,4H,5H,6H-pyrrolo[3,4-c]pyrrole-2-carboxamide], the activation at 1.54 µM at PKR(G332S) was 75 to 250%; on PKR(R510Q) it was 250 to 50000%; at PKR(wt), 250 to 50000%. Besides, the AC50 at PKR(G332S) is no more than 0.1 µM; on PKR(R510Q), 0.1 to 1 µM; on PKR(wt), 0.1 to 1 µM. Moreover, the Emax lay in the range of 75 to 250% on PKR(G332S), 250 to 500% on PKR(R510Q) and 250 to 500% on PKR(wt).

With `Cc1nc(CC(=O)N2CC3=C(C2)CN(S(=O)(=O)c2ccccn2)C3)cs1` [Example 18-68, 2-(2-Methyl-1,3-thiazol-4-yl)-1-[5-(pyridine-2-sulfonyl)-1H,2H,3H,4H,5H,6H-pyrrolo[3,4-c]pyrrol-2-yl]ethan-1-one], the activation at 1.54 µM at PKR(G332S), on PKR(R510Q) and at PKR(wt) was 75 to 250% each time. Moreover, the results for the AC50 at PKR(G332S), on PKR(R510Q) and at PKR(wt) were 0.1 to 1 µM, 1 to 40 µM and 1 to 40 µM, respectively. In addition, the Emax at PKR(G332S) fell in the range of 75 to 250%; on PKR(R510Q), 75 to 250%; at PKR(wt), 250 to 500%.

Take `O=C(Cc1ccc[nH]1)N1CC2=C(C1)CN(S(=O)(=O)c1ccc(OC(F)F)cc1)C2` [Example 18-27, 1-{5-[4-(Difluoromethoxy)benzenesulfonyl]-1H,2H,3H,4H,5H,6H-pyrrolo[3,4-c]pyrrol-2-yl}-2-(1H-pyrrol-2-yl)ethan-1-one]: at PKR(G332S), the activation at 1.54 µM fell in the range of 75 to 250%, the AC50 was in the range of 1 to 40 µM and the Emax is 75 to 250%. Also, on PKR(R510Q), the activation at 1.54 µM fell in the range of 75 to 250%, the AC50 was 1 to 40 µM and the Emax is 75 to 250%. Also, at PKR(wt), the activation at 1.54 µM was 75 to 250%, the AC50 was 1 to 40 µM and the Emax was in the range of 75 to 250%.

In the case of `O=C(C(O)c1cccc(F)c1)N1CC2=C(C1)CN(S(=O)(=O)c1ccc(OC(F)F)cc1)C2` (stereo not drawn) [Example 18-22, 1-{5-[4-(Difluoromethoxy)benzenesulfonyl]-1H,2H,3H,4H,5H,6H-pyrrolo[3,4-c]pyrrol-2-yl}-2-(3-fluorophenyl)-2-hydroxyethan-1-one], the figures for the activation at 1.54 µM on PKR(G332S), at PKR(R510Q) and at PKR(wt) were 75 to 250%, 250 to 50000% and 75 to 250%, respectively. In addition, the AC50 on PKR(G332S) was no more than 0.1 µM; at PKR(R510Q), 0.1 to 1 µM; at PKR(wt) it was 0.1 to 1 µM. The Emax at PKR(G332S) lay in the range of 75 to 250%; at PKR(R510Q), 250 to 500%; at PKR(wt) it was 250 to 500%.
